PMC3989846 (Malaria Journal, 2014)

Columns and labels:
[1] = tested on: P. berghei ANKA blood stage parasitaemia; assay: Blood stage infection by flow cytometry (FCM) and causal prophylaxis outcome after sporozoite challenge; type: in vivo, Plasmodium berghei; settings: for Effects: CP = causal prophylaxis; for Blood Infection by FCM: infected/challenged mice
Method: Novel and control anti-malarials were administered orally on days -1, 0, and 1 with respect to sporozoite inoculation. […] Additionally, blood stage infections were measured by flow cytometry. Positive and negative controls were used for the IVIS calibration in each test.
(§1) Causal prophylactic effects and delay in onset of parasitaemia in animals treated with TQ and PQ (Figure 1) were assessed in these experiments, which included a positive control, 4-methyl-PQ. All dosing was conducted based on the body weight at the time of preparation of the dosing solution. […] Each animal received 0.1 - 0.2 ml of the oral solutions, delivered via an intragastric feeder (18-gauge) to the designated recipient. Stock solutions of test compounds were prepared fresh daily by grinding the needed amount of drug in cold (4°C) 0.5% (w/v) hydroxyethyl cellulose and 0.2% (v/v) Tween-80 (0.5% HECT) and diluting the resulting solution at variable concentrations. C57BL/6 albino mice were challenged intravenously with 50,000 luciferase-expressing P. berghei sporozoites extracted from the salivary glands of heavily infected An. stephensi mosquitoes. […] At day 5–30 after infection, the same mice were analysed for blood stage infection by determination of the course of parasitaemia of tail blood by flow cytometry using an FC500 flow cytometer (Beckman-Coulter Co. CA).
At day 5–30 after infection, the same mice were analysed for blood stage infections by quantitation of malaria parasites by flow cytometry (FCM). All FCM analyses were carried out with a FC500 MPL flow cytometer (Beckman Coulter, Fullerton, CA), which conducts five-colour analysis from either single or dual laser excitation. Infected erythrocytes, uninfected erythrocytes, and leukocytes were gated on logarithmic forward/side dot plots. Cells were analysed at an average rate of 2,000-3,000 erythrocytes/s. Filters were placed before the green (FL-1) and red (FL-2) photomultiplier tubes (PMTs) such that the green PMT registered fluorescence emission between 520 and 555 nm, and the red PMT measured emission greater than 580 nm.
A drop of blood (3 μL) from the mouse tail was collected directly into 0.3 ml of 1% heparinized isotonic buffer (PBS saline). In this study, 1 ml 0.04% of glutaraldehyde was used for fixation and the samples were then incubated at 4°C for 60 minutes. The cells were centrifuged at 450 × g for 5 min. […] After centrifugation, the permeabilized cells were re-suspended in 0.5 ml of RNAse at 1 mg/ml concentrations and incubated for at least 2 hours at 37°C to ensure complete digestion of reticulocytes. Plasmodium berghei infection in mice results in anaemia which then results in reticulocytosis. Therefore, high RNAse concentrations for digesting large amounts of reticulocytes RNA were required for assessment of parasitaemia in this mouse model.
In the in vivo imaging experiments, causal prophylaxis activity, sporontocidal activity, parasite clearance, causal cure, delays in patency, and time to recrudescence were calculated as described previously. The minimum curative dose (MCD100) in 100% animals was defined as the lowest dose, which cured all animals (>5 animals) in a group at any time during the first 30 days of the follow-up period. […] Means and standard deviations of photon measurement were calculated. Blood stage infection was defined as two positive blood samples by flow cytometry, taken daily apart. The negative blood samples were monitored until day 15 after inoculation. Coefficients of variation were calculated as a percentage by dividing the standard deviation by the mean value.

[2] = tested on: luciferase-expressing P. berghei ANKA sporozoites; assay: Real time in vivo imaging (IVIS) of liver-stage luminescence in sporozoite-infected mice; set-up: species or system Plasmodium berghei; settings: for Suppression rate (%) IVIS 24 h: 24 h post infection; for Suppression rate (%) IVIS 48 h: 48 h post infection; for Suppression rate (%) IVIS 72 h: 72 h post infection
Excerpt: Luciferase-expressing P. berghei ANKA sporozoites were obtained from laboratory-reared female An. stephensi mosquitoes from the Department of Mosquito Biology, WRAIR. […] Salivary glands were extracted from malaria-infected mosquitoes and kept on ice in RPMI medium with 1% mouse serum. Sporozoites will be recovered by the method of Ozaki, and quantitated using a haemocytometer. Sporozoites isolated from the same batch of mosquitoes will be inoculated into C57BL/6 albino mice on the same day to control for biological variability in sporozoite preparations. Each C57BL/6 mouse will be inoculated intravenously in the tail vein with approximately 50,000 sporozoites suspended in 0.1 mL volume on day 0. To ensure that inoculated sporozoites are viable following the isolation procedure, they will be stained with a vital dye containing fluorescein diacetate (50 mg/mL in acetone) and ethidium bromide (20 μg/mL in phosphate-buffered saline; Sigma Chemical Co., St. Louis, Mo.) and counted in a haemocytometer.
[…] […] Additionally, blood stage infections were measured by flow cytometry. Positive and negative controls were used for the IVIS calibration in each test.
as §1
In vivo imaging studies of bioluminescence activity from luciferase expressing P. berghei infected mice were performed using a Perkin Elmer IVIS Spectrum (Hanover, MD). […] Three minutes post luciferin administration the mice were anesthetized with inhaled isoflurane. The mice were then positioned ventral side up in the IVIS on a 37°C platform. The mice continue to receive isoflurane through nose cone delivery. The camera exposure times utilized were 1 and 5 minutes for the 24, 48, and 72 hour time points with f-stop = 1 and large binning setting. Quantitative analysis of bioluminescence emitted from whole bodies or region of intensity (ROI) were determined by measuring the luminescence signal intensity in photons/second using the ROI settings of the Living Image® 3.0 software. The ROI, which measurements were expressed in total flux of photons, was set to measure the abdominal area at the location of the liver from whole body imaging.
In the in vivo imaging experiments, causal prophylaxis activity, sporontocidal activity, parasite clearance, causal cure, delays in patency, and time to recrudescence were calculated as described previously. The minimum curative dose (MCD100) in 100% animals was defined as the lowest dose, which cured all animals (>5 animals) in a group at any time during the first 30 days of the follow-up period.

[3] = 1.25 mg/kg oral, 3 days (-1, 0, 1)
[4] = 5 mg/kg oral, 3 days (-1, 0, 1)
[5] = 5 mg/kg single oral dose on day 0
[6] = 5 mg/kg single oral dose on day -1
[7] = 10 mg/kg oral, 3 days (-1, 0, 1)
[8] = 15 mg/kg oral, 3 days (-1, 0, 1)
[9] = 20 mg/kg oral, 3 days (-1, 0, 1)
[10] = 25 mg/kg oral, 3 days (-1, 0, 1)
[11] = 25 mg/kg single oral dose on day 0
[12] = 25 mg/kg single oral dose on day -1

Q: With COc1cc(C)c2c(Oc3cccc(C(F)(F)F)c3)c(OC)cc(NC(C)CCCN)c2n1 (stereo not drawn) [Tafenoquine, tafenoquine] as the molecule, how does the “Number of C57BL/albino mice Causal prophylaxis” value [1, 3] read?
A: 1/5

Q: And the “Number of C57BL/albino mice Protected completely” value [1, 3]?
A: 1

Q: And the Effects [1, 3]?
A: Suppression

Q: What about the “Blood Infection by FCM” value [1, 3] of the same molecule?
A: 4/5

Q: What about the “Number of C57BL/albino mice Causal prophylaxis” value [1, 4] of the same molecule?
A: 13/13

Q: And the “Number of C57BL/albino mice Protected completely” value [1, 4]?
A: 13

Q: And the Effects [1, 4]?
A: Full CP

Q: What about the “Blood Infection by FCM” value [1, 4] of the same molecule?
A: 0/13

Q: What about the “Number of C57BL/albino mice Causal prophylaxis” value [1, 5] of the same molecule?
A: 1/5

Q: And the “Number of C57BL/albino mice Protected completely” value [1, 5]?
A: 1

Q: And the Effects [1, 5]?
A: Partial CP

Q: What about the “Blood Infection by FCM” value [1, 5] of the same molecule?
A: 4/5

Q: And the “Number of C57BL/albino mice Causal prophylaxis” value [1, 6]?
A: 10/10

Q: What about the “Number of C57BL/albino mice Protected completely” value [1, 6] of the same molecule?
A: 10

Q: What about the Effects [1, 6] of the same molecule?
A: Full CP

Q: And the “Blood Infection by FCM” value [1, 6]?
A: 0/10

Q: What about the “Blood Infection by FCM” value ([1]; 5 mg/kg single oral dose on day -1, listed as TQ) of the same molecule?
A: no blood stage parasitaemia

Q: What about the “Number of C57BL/albino mice Causal prophylaxis” value [1, 7] of the same molecule?
A: 5/5

Q: What about the “Number of C57BL/albino mice Protected completely” value [1, 7] of the same molecule?
A: 5

Q: And the Effects [1, 7]?
A: Full CP

Q: And the “Blood Infection by FCM” value [1, 7]?
A: 0/5

Q: And the “Number of C57BL/albino mice Causal prophylaxis” value ([1]; […] oral, 3 days (-1, 0, 1))?
A: 3/5

Q: And the “Number of C57BL/albino mice Protected completely” value ([1]; […] oral, 3 days (-1, 0, 1))?
A: 3

Q: And the “minimal curative single oral dose” value ([1]; single oral dose, causal prophylaxis in mice)?
A: 5 mg/kg

Q: What about the causal activity ([1]; three oral doses: TQ 5 mg/kg, PQ 25 mg/kg) of the same molecule?
A: 100%

Q: What about the “Suppression rate (%) IVIS 24 h” value [2, 3] of the same molecule?
A: 84.7%

Q: What about the “Suppression rate (%) IVIS 48 h” value [2, 3] of the same molecule?
A: 92.3%

Q: And the “Suppression rate (%) IVIS 72 h” value [2, 3]?
A: 98.9%

Q: What about the “Suppression rate (%) IVIS 48 h” value [2, 4] of the same molecule?
A: 100%

Q: What about the “Suppression rate (%) IVIS 72 h” value [2, 4] of the same molecule?
A: 100%

Q: And the “Suppression rate (%) IVIS 24 h” value [2, 5]?
A: 66.0%

Q: What about the “Suppression rate (%) IVIS 48 h” value [2, 5] of the same molecule?
A: 91.1%

Q: And the “Suppression rate (%) IVIS 72 h” value [2, 5]?
A: 98.5%

Q: And the “Suppression rate (%) IVIS 24 h” value [2, 6]?
A: 68.7%

Q: And the “Suppression rate (%) IVIS 48 h” value [2, 6]?
A: 98.6%

Q: And the “Suppression rate (%) IVIS 72 h” value [2, 6]?
A: 100%

Q: And the “Suppression rate (%) IVIS 24 h” value [2, 7]?
A: 100%

Q: What about the “Suppression rate (%) IVIS 48 h” value [2, 7] of the same molecule?
A: 100%

Q: And the “Suppression rate (%) IVIS 72 h” value [2, 7]?
A: 100%

Q: With COc1cc(NC(C)CCCN)c2ncccc2c1 (stereo not drawn) [Primaquine, primaquine] as the molecule, how does the Effects [1, 4] read?
A: Suppression

Q: And the “Blood Infection by FCM” value [1, 4]?
A: 5/5

Q: What about the Effects [1, 7] of the same molecule?
A: Partial CP

Q: What about the “Blood Infection by FCM” value [1, 7] of the same molecule?
A: 5/10

Q: And the Effects [1, 8]?
A: Partial CP

Q: And the “Blood Infection by FCM” value [1, 8]?
A: 4/20

Q: What about the Effects [1, 9] of the same molecule?
A: Partial CP

Q: What about the “Blood Infection by FCM” value [1, 9] of the same molecule?
A: 1/10

Q: What about the “Delay in patency (days after onset in controls)” value ([1]; 20 mg/kg oral, 3 days (-1, 0, 1), per infected mouse) of the same molecule?
A: 6 days

Q: And the Effects [1, 10]?
A: Full CP

Q: And the “Blood Infection by FCM” value [1, 10]?
A: 0/10

Q: What about the Effects [1, 11] of the same molecule?
A: Suppression

Q: What about the “Blood Infection by FCM” value [1, 11] of the same molecule?
A: 5/5

Q: What about the Effects [1, 12] of the same molecule?
A: Suppression

Q: What about the “Blood Infection by FCM” value [1, 12] of the same molecule?
A: 5/5

Q: And the “blood stage parasitaemia 5–30 days after infection” value ([1]; single oral dose 25 mg/kg)?
A: severe parasitaemia

Q: What about the “Suppression rate (%) IVIS 24 h” value [2, 4] of the same molecule?
A: 82.4%

Q: And the “Suppression rate (%) IVIS 48 h” value [2, 4]?
A: 77.5%

Q: And the “Suppression rate (%) IVIS 72 h” value [2, 4]?
A: 89.4%

Q: And the “Suppression rate (%) IVIS 24 h” value [2, 7]?
A: 100%

Q: And the “Suppression rate (%) IVIS 48 h” value [2, 7]?
A: 97.6%

Q: And the “Suppression rate (%) IVIS 72 h” value [2, 7]?
A: 100%

Q: What about the “low level of luminescence” value ([2]; 10 mg/kg x 3 days, 5 of 10 animals, 48 hours) of the same molecule?
A: 0.66 × 10^5 photons/sec

Q: And the “Suppression rate (%) IVIS 24 h” value [2, 8]?
A: 100%

Q: And the “Suppression rate (%) IVIS 48 h” value [2, 8]?
A: 100%

Q: And the “Suppression rate (%) IVIS 72 h” value [2, 8]?
A: 100%

Q: What about the “Suppression rate (%) IVIS 24 h” value [2, 9] of the same molecule?
A: 100%

Q: And the “Suppression rate (%) IVIS 48 h” value [2, 9]?
A: 100%

Q: And the “Suppression rate (%) IVIS 72 h” value [2, 9]?
A: 100%

Q: What about the “Suppression rate (%) IVIS 24 h” value [2, 10] of the same molecule?
A: 100%

Q: And the “Suppression rate (%) IVIS 48 h” value [2, 10]?
A: 100%

Q: What about the “Suppression rate (%) IVIS 72 h” value [2, 10] of the same molecule?
A: 100%

Q: What about the “Suppression rate (%) IVIS 24 h” value [2, 11] of the same molecule?
A: 11.2%

Q: What about the “Suppression rate (%) IVIS 48 h” value [2, 11] of the same molecule?
A: 0%

Q: And the “Suppression rate (%) IVIS 72 h” value [2, 11]?
A: 0%

Q: What about the “Suppression rate (%) IVIS 24 h” value [2, 12] of the same molecule?
A: 45.7%

Q: What about the “Suppression rate (%) IVIS 48 h” value [2, 12] of the same molecule?
A: 0%

Q: And the “Suppression rate (%) IVIS 72 h” value [2, 12]?
A: 0%

Q: What about the “liver luminescence after 24 hours” value ([2]; single oral dose 25 mg/kg) of the same molecule?
A: high levels of luminescence and no suppression of signal
